Experimental data: US20050032738A1, “Method of treating cancer by conjunctive therapy with 2'-haloemethylidene derivatives and a S-phase or M-phase specific antineoplastic agent” (Merrell Pharmaceuticals Inc., priority 1992, published 2005)
In brackets after ≈: the same amount, converted by molar mass.

Columns and labels:
HeLa cells = assay: Antiproliferative activity against HeLa cells (MTT cell viability); details: for IC50: Homo sapiens, HeLa, 72 h, read-out: Drug Alone IC50
B16 melanoma = assay: Antitumor activity against B16 melanoma in mice; type: in vivo; details: B16 melanoma s.c. day 0, i.p. once daily, 101,731 5 mg/kg day 1-7, Ara-C 10 mg/kg day 7-14; for % Inhibition (tumor weight): day 15; for Tumor Weight (g) (Mean ± S.D.): tumors weighed day 15
Description: Inject B16 melanoma cells (1×10^5 cells/mouse) subcutaneously on day 0. Administer compounds i.p. once daily as indicated. Sacrifice the animals on day 15, dissect the tumors and weigh.

Lewis lung carcinoma = assay: Antitumor activity against Lewis lung carcinoma in mice (tumor weight, pulmonary metastatic foci); type: in vivo; details: i.p. once daily, 101,731 5 mg/kg day 1-7, Ara-C 10 mg/kg day 7-14; for % Inhibition (tumor weight) / Tumor Weight (g) (Mean ± S.D.): 3LL cells s.c. day 0; for % Inhibition (tumor weight) / % Inhibition (No. of foci) / No. of Foci (Mean ± S.D.): day 15; for Tumor Weight (g) (Mean ± S.D.): tumors weighed day 15; for % Inhibition (No. of foci) / No. of Foci (Mean ± S.D.): pulmonary metastatic foci
Description: Inject 3 LL cells (1×10^5/mouse) s.c. on day 0. Administer compounds i.p., once daily as indicated. Sacrifice animals on day 15, dissect the tumors and weigh. Also count pulmonary metastatic foci.

Row | IC50 (HeLa cells) | Drug + 101,731 IC50 (HeLa cells; HeLa cells pretreated with MDL 101,731 15 ng/mL for 24 hours, washed, then drug for 72 hours, MTT) | Drug Alone IC50 (HeLa cells; HeLa cells, 72 hours exposure to drug, MTT) | Compound | % Inhibition (tumor weight) (B16 melanoma) | Tumor Weight (g) (Mean ± S.D.) (B16 melanoma) | Effect on the growth of the tumor cells (HeLa cells; MDL 101,731 alone, 15 ng/mL for 24 hours, HeLa cells) | % Inhibition (tumor weight) (Lewis lung carcinoma) | Tumor Weight (g) (Mean ± S.D.) (Lewis lung carcinoma) | % Inhibition (No. of foci) (Lewis lung carcinoma) | No. of Foci (Mean ± S.D.) (Lewis lung carcinoma)
1 | 41.1 µg/mL (≈ 316 µM) |  |  | O=c1[nH]cc(F)c(=O)[nH]1 [5-Fluorouracil (5Fu), 5-Fluorouracil] |  |  |  |  |  |  | 
2 |  |  |  | Nc1ccn([C@@H]2O[C@H](CO)[C@@H](O)/C2=C\F)c(=O)n1 [101,731, (E)-2′-deoxy-2′-fluoromethylidenecytidine] | 10% | 2.4 ± 0.9 g | did not show any effect | 20% | 2.8 ± 0.6 g | 0% | 15.5 ± 6
3 |  | 3.2 µg/mL | 13.7 µg/mL | Nc1ccn([C@@H]2O[C@H](CO)[C@@H](O)[C@@H]2O)c(=O)n1 [Ara-C, Cytosine Arabinoside] | 0% | 3.6 ± 0.8 g |  | 0% | 3.83 ± 0.8 g | 0% | 14.6 ± 5
4 | 86.7 µg/mL (≈ 107 µM) |  |  | CC[C@]1(O)C[C@@H]2CN(CCc3c([nH]c4ccccc34)[C@@](C(=O)OC)(c3cc4c(cc3OC)N(C)[C@H]3[C@@](O)(C(=O)OC)[C@H](OC(C)=O)[C@]5(CC)C=CCN6CC[C@]43[C@@H]65)C2)C1 [Vinblastine (VLB), Vinblastine] |  |  |  |  |  |  | 
